Laboratory results taken from PubChem BioAssay (NCI).
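These data come from cells grown in 96-well plates and exposed to compound for 48 hours at five concentrations. Abbreviation: GI50, concentration required for 50% inhibition of growth. TGI is the concentration that stops growth completely.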

Assays:
Assay in all cases: NCI tumour cell line growth inhibition, 48 h
TK-10 renal = test system: TK-10 renal
SW-620 colon = test system: SW-620 colon
IGROV1 ovarian = test system: IGROV1 ovarian
SK-MEL-28 melanoma = test system: SK-MEL-28 melanoma
CCRF-CEM leukemia = test system: CCRF-CEM leukemia
A498 renal = test system: A498 renal
NCI-H460 lung = test system: NCI-H460 lung
SK-MEL-2 melanoma = test system: SK-MEL-2 melanoma
RPMI-8226 leukemia = test system: RPMI-8226 leukemia
UACC-257 melanoma = test system: UACC-257 melanoma
NCI-H522 lung = test system: NCI-H522 lung
SF-268 CNS = test system: SF-268 CNS
SNB-19 CNS = test system: SNB-19 CNS
COLO 205 colon = test system: COLO 205 colon
EKVX NSCLC = test system: EKVX NSCLC
HOP-92 NSCLC = test system: HOP-92 NSCLC
OVCAR-8 ovarian = test system: OVCAR-8 ovarian
A549 NSCLC = test system: A549 NSCLC
LOX IMVI melanoma = test system: LOX IMVI melanoma
SR leukemia = test system: SR leukemia
SF-539 CNS = test system: SF-539 CNS
DU-145 prostate = test system: DU-145 prostate
BT-549 breast = test system: BT-549 breast
MALME-3M melanoma = test system: MALME-3M melanoma
PC-3 prostate = test system: PC-3 prostate
UACC-62 melanoma = test system: UACC-62 melanoma
HS 578T breast = test system: HS 578T breast
HCT-116 colon = test system: HCT-116 colon
K-562 leukemia = test system: K-562 leukemia
HL-60(TB) leukemia = test system: HL-60(TB) leukemia
KM12 colon = test system: KM12 colon
UO-31 renal = test system: UO-31 renal
NCI-H226 lung = test system: NCI-H226 lung
T-47D breast = test system: T-47D breast
OVCAR-5 ovarian = test system: OVCAR-5 ovarian
M14 melanoma = test system: M14 melanoma
786-0 renal = test system: 786-0 renal
SK-OV-3 ovarian = test system: SK-OV-3 ovarian
NCI/ADR-RES ovarian = test system: NCI/ADR-RES ovarian
HT29 colon = test system: HT29 colon
HCC-2998 colon = test system: HCC-2998 colon
NCI-H23 lung = test system: NCI-H23 lung
MDA-MB-231 breast = test system: MDA-MB-231 breast
MCF7 breast = test system: MCF7 breast
MDA-MB-435 = test system: MDA-MB-435
CAKI-1 renal = test system: CAKI-1 renal
SK-MEL-5 melanoma = test system: SK-MEL-5 melanoma
SNB-75 CNS = test system: SNB-75 CNS
OVCAR-4 ovarian = test system: OVCAR-4 ovarian
SN12C renal = test system: SN12C renal
SF-295 CNS = test system: SF-295 CNS
OVCAR-3 ovarian = test system: OVCAR-3 ovarian
MOLT-4 leukemia = test system: MOLT-4 leukemia
U251 CNS = test system: U251 CNS
HCT-15 colon = test system: HCT-15 colon
ACHN renal = test system: ACHN renal
HOP-62 NSCLC = test system: HOP-62 NSCLC

SMILES: O=C(CCCCCCNC(=O)C(O)(O)C(F)(F)F)Nc1ccc(-c2ccccc2)cc1
- GI50 (TK-10 renal): 1.63 µM
- TGI (TK-10 renal): > 33.2 µM
- GI50 (SW-620 colon): 1.8 µM
- TGI (SW-620 colon): 7.24 µM
- GI50 (IGROV1 ovarian): 3.9 µM
- TGI (IGROV1 ovarian): 10.6 µM
- GI50 (SK-MEL-28 melanoma): 2.09 µM
- TGI (SK-MEL-28 melanoma): 8.52 µM
- GI50 (CCRF-CEM leukemia): 1.84 µM
- TGI (CCRF-CEM leukemia): > 33.2 µM
- GI50 (A498 renal): 0.7 µM
- TGI (A498 renal): 6.41 µM
- GI50 (NCI-H460 lung): 3.24 µM
- TGI (NCI-H460 lung): 11.4 µM
- GI50 (SK-MEL-2 melanoma): 3.31 µM
- TGI (SK-MEL-2 melanoma): 8.97 µM
- GI50 (RPMI-8226 leukemia): 2.32 µM
- TGI (RPMI-8226 leukemia): > 33.2 µM
- GI50 (UACC-257 melanoma): 4.67 µM
- TGI (UACC-257 melanoma): 14.5 µM
- GI50 (NCI-H522 lung): 3.81 µM
- TGI (NCI-H522 lung): 20.5 µM
- GI50 (SF-268 CNS): 5.98 µM
- TGI (SF-268 CNS): 14.3 µM
- GI50 (SNB-19 CNS): 4.63 µM
- TGI (SNB-19 CNS): 10.3 µM
- GI50 (COLO 205 colon): 4.03 µM
- TGI (COLO 205 colon): 11.8 µM
- GI50 (EKVX NSCLC): 5.26 µM
- TGI (EKVX NSCLC): > 33.2 µM
- GI50 (HOP-92 NSCLC): 0.74 µM
- TGI (HOP-92 NSCLC): 4.18 µM
- GI50 (OVCAR-8 ovarian): 3.25 µM
- TGI (OVCAR-8 ovarian): > 33.2 µM
- GI50 (A549 NSCLC): 6.04 µM
- TGI (A549 NSCLC): 28.8 µM
- GI50 (LOX IMVI melanoma): 1.96 µM
- TGI (LOX IMVI melanoma): 6.29 µM
- GI50 (SR leukemia): 1.43 µM
- TGI (SR leukemia): > 33.2 µM
- GI50 (SF-539 CNS): 4.61 µM
- TGI (SF-539 CNS): 13 µM
- GI50 (DU-145 prostate): 4.78 µM
- TGI (DU-145 prostate): 32.7 µM
- GI50 (BT-549 breast): 4.21 µM
- TGI (BT-549 breast): 13.2 µM
- GI50 (MALME-3M melanoma): 1.6 µM
- TGI (MALME-3M melanoma): 10.2 µM
- GI50 (PC-3 prostate): 3.78 µM
- TGI (PC-3 prostate): 19 µM
- GI50 (UACC-62 melanoma): 1.31 µM
- TGI (UACC-62 melanoma): 5.39 µM
- GI50 (HS 578T breast): 4.15 µM
- TGI (HS 578T breast): 25.3 µM
- GI50 (HCT-116 colon): 1.27 µM
- TGI (HCT-116 colon): 7.08 µM
- GI50 (K-562 leukemia): 1.58 µM
- TGI (K-562 leukemia): > 33.2 µM
- GI50 (HL-60(TB) leukemia): 2.64 µM
- TGI (HL-60(TB) leukemia): > 33.2 µM
- GI50 (KM12 colon): 3.84 µM
- TGI (KM12 colon): 9.23 µM
- GI50 (UO-31 renal): 3.11 µM
- TGI (UO-31 renal): 8.88 µM
- GI50 (NCI-H226 lung): 7.55 µM
- TGI (NCI-H226 lung): 26.6 µM
- GI50 (T-47D breast): 2.96 µM
- TGI (T-47D breast): 25.3 µM
- GI50 (OVCAR-5 ovarian): 1.62 µM
- TGI (OVCAR-5 ovarian): 9.14 µM
- GI50 (M14 melanoma): 3.82 µM
- TGI (M14 melanoma): 12.5 µM
- GI50 (786-0 renal): 4.34 µM
- TGI (786-0 renal): 11.7 µM
- GI50 (SK-OV-3 ovarian): 4.31 µM
- TGI (SK-OV-3 ovarian): 21.6 µM
- GI50 (NCI/ADR-RES ovarian): 3.99 µM
- TGI (NCI/ADR-RES ovarian): 12.4 µM
- GI50 (HT29 colon): 3.77 µM
- TGI (HT29 colon): > 33.2 µM
- GI50 (HCC-2998 colon): 4.91 µM
- TGI (HCC-2998 colon): 9.88 µM
- GI50 (NCI-H23 lung): 4.28 µM
- TGI (NCI-H23 lung): 13.6 µM
- GI50 (MDA-MB-231 breast): 2.84 µM
- TGI (MDA-MB-231 breast): 10.7 µM
- GI50 (MCF7 breast): 5.57 µM
- TGI (MCF7 breast): 30 µM
- GI50 (MDA-MB-435): 3.55 µM
- TGI (MDA-MB-435): 32.4 µM
- GI50 (CAKI-1 renal): 5.74 µM
- TGI (CAKI-1 renal): 17.5 µM
- GI50 (SK-MEL-5 melanoma): 1.94 µM
- TGI (SK-MEL-5 melanoma): 6.27 µM
- GI50 (SNB-75 CNS): 2.92 µM
- TGI (SNB-75 CNS): > 33.2 µM
- GI50 (OVCAR-4 ovarian): 11 µM
- TGI (OVCAR-4 ovarian): > 33.2 µM
- GI50 (SN12C renal): 4.21 µM
- TGI (SN12C renal): 16 µM
- GI50 (SF-295 CNS): 2.53 µM
- TGI (SF-295 CNS): 7.49 µM
- GI50 (OVCAR-3 ovarian): 3.39 µM
- TGI (OVCAR-3 ovarian): 8.2 µM
- GI50 (MOLT-4 leukemia): 1.32 µM
- TGI (MOLT-4 leukemia): > 33.2 µM
- GI50 (U251 CNS): 3.62 µM
- TGI (U251 CNS): 10.9 µM
- GI50 (HCT-15 colon): 4.73 µM
- TGI (HCT-15 colon): 9.8 µM
- GI50 (ACHN renal): 2.85 µM
- TGI (ACHN renal): 9.22 µM
- GI50 (HOP-62 NSCLC): 4.76 µM
- TGI (HOP-62 NSCLC): 29.4 µM
